Experimental data: PubChem BioAssay (NCI)
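Cultured in 96-well plates, cells were exposed to test compound for 48 hours across five concentrations. At the GI50, growth is halved. TGI denotes the concentration required for complete inhibition of growth.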

tested on: UO-31 renal; assay: DTP human tumour cell line panel, 48 h

| Structure (SMILES) | TGI | GI50 |
| --- | --- | --- |
| O=[N+]1[C@H](c2ccccc2)[C@H](c2ccccc2)N1[O-] | 28.5 µM |  |
| COC(=O)c1ccc2c(c1)CC1(C2)Cc2ccccc2C1=O (stereo not drawn) | > 100 µM |  |
| C[C@@H]1CCc2ncc(F)cc2[C@H]2CCCN2c2ccn3ncc(c3n2)C(=O)N1 | > 100 µM | 29.8 µM |

tested on: T-47D breast; assay: DTP human tumour cell line panel, 48 h

| Structure (SMILES) | TGI | GI50 |
| --- | --- | --- |
| C1CSCC2(COC2)CSCCSCC2(COC2)CS1 | > 100 µM |  |
| COc1ccccc1N/C(SCc1ccccc1)=C(/C(Cl)=C(Cl)Cl)[N+](=O)[O-] | 65.6 µM |  |
| COC(=O)c1ccc2c(c1)CC1(C2)Cc2ccccc2C1=O (stereo not drawn) | > 100 µM |  |
| C[C@@H]1CCc2ncc(F)cc2[C@H]2CCCN2c2ccn3ncc(c3n2)C(=O)N1 | > 100 µM | 86.1 µM |

tested on: RPMI-8226 leukemia; assay: DTP human tumour cell line panel, 48 h

| Structure (SMILES) | TGI | GI50 |
| --- | --- | --- |
| Cc1cc(-c2nc3c(F)cccc3s2)ccc1N | > 100 µM |  |
| COc1ccccc1N/C(SCc1ccccc1)=C(/C(Cl)=C(Cl)Cl)[N+](=O)[O-] | 88.2 µM |  |
| O=[N+]1[C@H](c2ccccc2)[C@H](c2ccccc2)N1[O-] | 25.4 µM |  |
| COC(=O)c1ccc2c(c1)CC1(C2)Cc2ccccc2C1=O (stereo not drawn) | 38 µM |  |
| C[C@@H]1CCc2ncc(F)cc2[C@H]2CCCN2c2ccn3ncc(c3n2)C(=O)N1 | > 100 µM | 94.8 µM |

tested on: TK-10 renal; assay: DTP human tumour cell line panel, 48 h

| Structure (SMILES) | TGI | GI50 |
| --- | --- | --- |
| C1CSCC2(COC2)CSCCSCC2(COC2)CS1 | > 100 µM |  |
| O=[N+]1[C@H](c2ccccc2)[C@H](c2ccccc2)N1[O-] | 30.9 µM |  |
| COC(=O)c1ccc2c(c1)CC1(C2)Cc2ccccc2C1=O (stereo not drawn) | > 100 µM |  |
| C[C@@H]1CCc2ncc(F)cc2[C@H]2CCCN2c2ccn3ncc(c3n2)C(=O)N1 | > 100 µM | 81.7 µM |

tested on: SNB-19 CNS; assay: DTP human tumour cell line panel, 48 h

| Structure (SMILES) | TGI | GI50 |
| --- | --- | --- |
| C1CSCC2(COC2)CSCCSCC2(COC2)CS1 | > 100 µM |  |
| COc1ccccc1N/C(SCc1ccccc1)=C(/C(Cl)=C(Cl)Cl)[N+](=O)[O-] | > 100 µM |  |
| O=[N+]1[C@H](c2ccccc2)[C@H](c2ccccc2)N1[O-] | 35.1 µM |  |
| COC(=O)c1ccc2c(c1)CC1(C2)Cc2ccccc2C1=O (stereo not drawn) | > 100 µM |  |
| C[C@@H]1CCc2ncc(F)cc2[C@H]2CCCN2c2ccn3ncc(c3n2)C(=O)N1 | > 100 µM | > 100 µM |

tested on: HL-60(TB) leukemia; assay: DTP human tumour cell line panel, 48 h

| Structure (SMILES) | TGI | GI50 |
| --- | --- | --- |
| C1CSCC2(COC2)CSCCSCC2(COC2)CS1 | > 100 µM |  |
| Cc1cc(-c2nc3c(F)cccc3s2)ccc1N | > 100 µM |  |
| O=[N+]1[C@H](c2ccccc2)[C@H](c2ccccc2)N1[O-] | 5.48 µM |  |
| COC(=O)c1ccc2c(c1)CC1(C2)Cc2ccccc2C1=O (stereo not drawn) | 56.9 µM |  |
| C[C@@H]1CCc2ncc(F)cc2[C@H]2CCCN2c2ccn3ncc(c3n2)C(=O)N1 | > 100 µM | > 100 µM |

tested on: HOP-62 NSCLC; assay: DTP human tumour cell line panel, 48 h

| Structure (SMILES) | TGI | GI50 |
| --- | --- | --- |
| C1CSCC2(COC2)CSCCSCC2(COC2)CS1 | > 100 µM |  |
| Cc1cc(-c2nc3c(F)cccc3s2)ccc1N | > 100 µM |  |
| COc1ccccc1N/C(SCc1ccccc1)=C(/C(Cl)=C(Cl)Cl)[N+](=O)[O-] | > 100 µM |  |
| O=[N+]1[C@H](c2ccccc2)[C@H](c2ccccc2)N1[O-] | 40.7 µM |  |
| COC(=O)c1ccc2c(c1)CC1(C2)Cc2ccccc2C1=O (stereo not drawn) | > 100 µM |  |
| C[C@@H]1CCc2ncc(F)cc2[C@H]2CCCN2c2ccn3ncc(c3n2)C(=O)N1 | > 100 µM | 60 µM |

tested on: SN12C renal; assay: DTP human tumour cell line panel, 48 h

| Structure (SMILES) | TGI | GI50 |
| --- | --- | --- |
| C1CSCC2(COC2)CSCCSCC2(COC2)CS1 | > 100 µM |  |
| Cc1cc(-c2nc3c(F)cccc3s2)ccc1N | > 100 µM |  |
| COc1ccccc1N/C(SCc1ccccc1)=C(/C(Cl)=C(Cl)Cl)[N+](=O)[O-] | 47.3 µM |  |
| O=[N+]1[C@H](c2ccccc2)[C@H](c2ccccc2)N1[O-] | 32.4 µM |  |
| COC(=O)c1ccc2c(c1)CC1(C2)Cc2ccccc2C1=O (stereo not drawn) | > 100 µM |  |
| C[C@@H]1CCc2ncc(F)cc2[C@H]2CCCN2c2ccn3ncc(c3n2)C(=O)N1 | > 100 µM | 44.1 µM |

tested on: NCI-H23 lung; assay: DTP human tumour cell line panel, 48 h

| Structure (SMILES) | TGI |
| --- | --- |
| C1CSCC2(COC2)CSCCSCC2(COC2)CS1 | > 100 µM |
| Cc1cc(-c2nc3c(F)cccc3s2)ccc1N | > 100 µM |
